Source: PubChem BioAssay (NCI)
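48-hour exposure; five concentrations; linearly interpolated endpoints. TGI is the concentration that stops growth completely.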

Key:
Experiment in all cases: inhibition of tumour cell growth, NCI panel, 48 h
[1] = tested on: 786-0 renal
[2] = tested on: A498 renal
[3] = tested on: A549 NSCLC
[4] = tested on: ACHN renal
[5] = tested on: BT-549 breast
[6] = tested on: CAKI-1 renal
[7] = tested on: CCRF-CEM leukemia
[8] = tested on: COLO 205 colon
[9] = tested on: DU-145 prostate
[10] = tested on: EKVX NSCLC
[11] = tested on: HCC-2998 colon
[12] = tested on: HCT-116 colon
[13] = tested on: HCT-15 colon
[14] = tested on: HL-60(TB) leukemia
[15] = tested on: HOP-62 NSCLC
[16] = tested on: HOP-92 NSCLC
[17] = tested on: HS 578T breast
[18] = tested on: HT29 colon
[19] = tested on: IGROV1 ovarian
[20] = tested on: K-562 leukemia
[21] = tested on: KM12 colon
[22] = tested on: LOX IMVI melanoma
[23] = tested on: M14 melanoma
[24] = tested on: MALME-3M melanoma
[25] = tested on: MCF7 breast
[26] = tested on: MDA-MB-231 breast
[27] = tested on: MDA-MB-435
[28] = tested on: MDA-N
[29] = tested on: MOLT-4 leukemia
[30] = tested on: NCI-H226 lung
[31] = tested on: NCI-H23 lung
[32] = tested on: NCI-H460 lung
[33] = tested on: NCI-H522 lung
[34] = tested on: NCI/ADR-RES ovarian
[35] = tested on: OVCAR-3 ovarian
[36] = tested on: OVCAR-4 ovarian
[37] = tested on: OVCAR-5 ovarian
[38] = tested on: OVCAR-8 ovarian
[39] = tested on: PC-3 prostate
[40] = tested on: RPMI-8226 leukemia
[41] = tested on: RXF 393 renal
[42] = tested on: SF-268 CNS
[43] = tested on: SF-295 CNS
[44] = tested on: SF-539 CNS
[45] = tested on: SK-MEL-2 melanoma
[46] = tested on: SK-MEL-28 melanoma
[47] = tested on: SK-MEL-5 melanoma
[48] = tested on: SK-OV-3 ovarian
[49] = tested on: SN12C renal
[50] = tested on: SNB-19 CNS
[51] = tested on: SNB-75 CNS
[52] = tested on: SW-620 colon
[53] = tested on: TK-10 renal
[54] = tested on: U251 CNS
[55] = tested on: UACC-257 melanoma
[56] = tested on: UACC-62 melanoma
[57] = tested on: UO-31 renal
[58] = tested on: SR leukemia
[59] = tested on: T-47D breast

Compound: COC(=O)C1=CSC2(S1)C(C(=O)OC)=CSc1c2ssc1=O (centres undefined)
- TGI [1]: 2.96 µM
- TGI [2]: 12.5 µM
- TGI [3]: 28.3 µM
- TGI [4]: 3.61 µM
- TGI [5]: 12.9 µM
- TGI [6]: 10.7 µM
- TGI [7]: 2.47 µM
- TGI [8]: 4.03 µM
- TGI [9]: 3.3 µM
- TGI [10]: 14.5 µM
- TGI [11]: 8.82 µM
- TGI [12]: 3.16 µM
- TGI [13]: 3.31 µM
- TGI [14]: 3.45 µM
- TGI [15]: 17 µM
- TGI [16]: 4.27 µM
- TGI [17]: 12.3 µM
- TGI [18]: 3.71 µM
- TGI [19]: 2.9 µM
- TGI [20]: > 23 µM
- TGI [21]: 12.8 µM
- TGI [22]: 3.35 µM
- TGI [23]: 6.65 µM
- TGI [24]: 6.18 µM
- TGI [25]: 2.89 µM
- TGI [26]: 4.13 µM
- TGI [27]: 4.34 µM
- TGI [28]: 4.92 µM
- TGI [29]: > 19.8 µM
- TGI [30]: 44.9 µM
- TGI [31]: 5.12 µM
- TGI [32]: 24.5 µM
- TGI [33]: 3.14 µM
- TGI [34]: 8.35 µM
- TGI [35]: 3.55 µM
- TGI [36]: 3.81 µM
- TGI [37]: 21.9 µM
- TGI [38]: 8.47 µM
- TGI [39]: 6.03 µM
- TGI [40]: 4.24 µM
- TGI [41]: 3.62 µM
- TGI [42]: 8.89 µM
- TGI [43]: 40.5 µM
- TGI [44]: 3.17 µM
- TGI [45]: 5.92 µM
- TGI [46]: 5.23 µM
- TGI [47]: 6.62 µM
- TGI [48]: 29.7 µM
- TGI [49]: 5.1 µM
- TGI [50]: 16.1 µM
- TGI [51]: 8.16 µM
- TGI [52]: 2.93 µM
- TGI [53]: 6.13 µM
- TGI [54]: 3.02 µM
- TGI [55]: 4 µM
- TGI [56]: 4.16 µM
- TGI [57]: 3.25 µM

Compound: Cc1ccc(N2C(=O)C=C(C3=C(O)C(=O)N(c4ccc(C)cc4)C3=O)C2=O)cc1
- TGI [1]: > 100 µM
- TGI [2]: > 100 µM
- TGI [3]: > 100 µM
- TGI [4]: > 100 µM
- TGI [5]: > 100 µM
- TGI [7]: > 100 µM
- TGI [8]: > 100 µM
- TGI [9]: > 100 µM
- TGI [10]: > 100 µM
- TGI [11]: > 100 µM
- TGI [12]: > 100 µM
- TGI [13]: > 100 µM
- TGI [14]: > 100 µM
- TGI [15]: > 100 µM
- TGI [16]: > 100 µM
- TGI [18]: > 100 µM
- TGI [19]: > 100 µM
- TGI [20]: > 100 µM
- TGI [22]: > 100 µM
- TGI [23]: > 100 µM
- TGI [24]: > 100 µM
- TGI [25]: > 100 µM
- TGI [26]: > 100 µM
- TGI [27]: > 100 µM
- TGI [28]: > 100 µM
- TGI [29]: > 100 µM
- TGI [30]: > 100 µM
- TGI [31]: > 100 µM
- TGI [32]: > 100 µM
- TGI [34]: > 100 µM
- TGI [35]: > 100 µM
- TGI [36]: > 100 µM
- TGI [37]: > 100 µM
- TGI [38]: > 100 µM
- TGI [39]: > 100 µM
- TGI [40]: > 100 µM
- TGI [42]: > 100 µM
- TGI [43]: > 100 µM
- TGI [46]: > 100 µM
- TGI [47]: > 100 µM
- TGI [48]: > 100 µM
- TGI [49]: > 100 µM
- TGI [50]: > 100 µM
- TGI [51]: > 100 µM
- TGI [58]: > 100 µM
- TGI [52]: > 100 µM
- TGI [59]: > 100 µM
- TGI [53]: > 100 µM
- TGI [54]: > 100 µM
- TGI [55]: > 100 µM
- TGI [56]: > 100 µM
- TGI [57]: > 100 µM

Compound: Cc1n[nH]c(=O)n1/N=C/c1ccc(F)cc1
- TGI [1]: > 100 µM
- TGI [2]: > 100 µM
- TGI [3]: > 100 µM
- TGI [4]: > 100 µM
- TGI [5]: > 100 µM
- TGI [6]: > 100 µM
- TGI [7]: > 100 µM
- TGI [8]: > 100 µM
- TGI [9]: > 100 µM
- TGI [10]: > 100 µM
- TGI [11]: > 100 µM
- TGI [12]: > 100 µM
- TGI [13]: > 100 µM
- TGI [15]: > 100 µM
- TGI [16]: > 100 µM
- TGI [20]: > 100 µM
- TGI [21]: > 100 µM
- TGI [23]: > 100 µM
- TGI [27]: > 100 µM
- TGI [28]: > 100 µM
- TGI [29]: > 100 µM
- TGI [31]: > 100 µM
- TGI [32]: > 100 µM
- TGI [33]: > 100 µM
- TGI [34]: > 100 µM
- TGI [35]: > 100 µM
- TGI [36]: > 100 µM
- TGI [37]: > 100 µM
- TGI [38]: > 100 µM
- TGI [40]: > 100 µM
- TGI [41]: > 100 µM
- TGI [42]: > 100 µM
- TGI [43]: > 100 µM
- TGI [44]: > 100 µM
- TGI [46]: > 100 µM
- TGI [48]: > 100 µM
- TGI [49]: > 100 µM
- TGI [50]: > 100 µM
- TGI [51]: > 100 µM
- TGI [58]: > 100 µM
- TGI [52]: > 100 µM
- TGI [59]: > 100 µM
- TGI [55]: > 100 µM
- TGI [56]: > 100 µM
- TGI [57]: > 100 µM

Compound: C=CCN1C(=O)/C(=C\c2cc(C(C)(C)C)c(O)c(C(C)(C)C)c2)NC1=S
- TGI [1]: 55.7 µM
- TGI [2]: 90.8 µM
- TGI [3]: > 100 µM
- TGI [4]: 90.2 µM
- TGI [5]: > 100 µM
- TGI [6]: 83.3 µM
- TGI [7]: 20.4 µM
- TGI [8]: 32.4 µM
- TGI [9]: 90.3 µM
- TGI [10]: 65.1 µM
- TGI [12]: 35.4 µM
- TGI [13]: > 100 µM
- TGI [14]: 25.1 µM
- TGI [15]: 51.5 µM
- TGI [16]: > 100 µM
- TGI [17]: > 100 µM
- TGI [18]: 80.7 µM
- TGI [19]: > 100 µM
- TGI [20]: > 100 µM
- TGI [21]: 72.6 µM
- TGI [22]: 31.6 µM
- TGI [23]: 75.4 µM
- TGI [24]: > 100 µM
- TGI [25]: 90.5 µM
- TGI [26]: 34.9 µM
- TGI [27]: 70.8 µM
- TGI [28]: > 100 µM
- TGI [29]: > 100 µM
- TGI [30]: 74.9 µM
- TGI [31]: 94 µM
- TGI [32]: 36.8 µM
- TGI [33]: 27.8 µM
- TGI [34]: > 100 µM
- TGI [35]: 39.6 µM
- TGI [36]: > 100 µM
- TGI [37]: > 100 µM
- TGI [38]: > 100 µM
- TGI [39]: 42 µM
- TGI [40]: > 100 µM
- TGI [42]: > 100 µM
- TGI [43]: 68.3 µM
- TGI [44]: > 100 µM
- TGI [45]: 31.8 µM
- TGI [46]: > 100 µM
- TGI [47]: 30.1 µM
- TGI [48]: > 100 µM
- TGI [49]: > 100 µM
- TGI [50]: > 100 µM
- TGI [58]: > 100 µM
- TGI [52]: > 100 µM
- TGI [53]: 73.9 µM
- TGI [54]: 32.7 µM
- TGI [55]: 43.4 µM
- TGI [56]: 33.1 µM
- TGI [57]: > 100 µM
